How the values were obtained:
[1] = test system: VCaP (Prostate Carcinoma); test: Bliss excess, mean over the matrix (fraction); higher = more synergy
Summary of the method: (§1)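 Bliss excess equals the observed combination effect minus the expected value EA + EB − EA·EB, where EA and EB are the effects of each agent alone. Combination Emax is the second-highest inhibition within the matrix. Inhibition was scaled from CellTiter-Glo 2.0 luminescence, with 0 set by vehicle wells and 1 by blank wells, after 72 hours of two-drug dosing of cells plated in 1536-well plates.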

LN-405 (Glioblastoma) = test: as above
Summary of the method: as §1

[2] = test system: PANC-10-05 (Pancreatic Carcinoma); test: as above
Summary of the method: as §1

[3] = test system: NCI-H64 (Small Cell Lung Carcinoma); test: as above
Summary of the method: as §1

[4] = test system: HCC1954 (Breast Carcinoma); test: as above
Summary of the method: as §1

[5] = test system: ECC10 (Gastric Carcinoma); test: as above
Summary of the method: as §1

[6] = test system: OS-RC-2 (Kidney Carcinoma); test: as above
Summary of the method: as §1

[7] = test system: NCI-H1693 (Lung Adenocarcinoma); test: as above
Summary of the method: as §1

NY (Osteosarcoma) = test: as above
Summary of the method: as §1

[8] = test system: NCI-H2141 (Small Cell Lung Carcinoma); test: as above
Summary of the method: as §1

[9] = test system: MDST8 (Colorectal Carcinoma); test: as above
Summary of the method: as §1

8-MG-BA (Glioblastoma) = test: as above
Summary of the method: as §1

IGR-37 (Melanoma) = test: as above
Summary of the method: as §1

[10] = test system: A549 (Lung Adenocarcinoma); test: as above
Summary of the method: as §1

[11] = test system: TT2609-C02 (Thyroid Gland Carcinoma); test: as above
Summary of the method: as §1

[12] = test system: COLO-320-HSR (Colorectal Carcinoma); test: as above
Summary of the method: as §1

PA-1 (Ovarian Carcinoma) = test: as above
Summary of the method: as §1

FU97 (Gastric Carcinoma) = test: combination Emax (second highest fraction inhibited in the dose matrix, 72 h); higher = more inhibition; extreme values may be limits of the assay
Summary of the method: as §1

[13] = test system: NCI-H1666 (Lung Adenocarcinoma); test: as above
Summary of the method: as §1

[14] = test system: HCC1954 (Breast Carcinoma); test: as above
Summary of the method: as §1

Compound	Bliss excess [1]	Bliss excess (LN-405 (Glioblastoma))	Bliss excess [2]	Bliss excess [3]	Bliss excess [4]	Bliss excess [5]	Bliss excess [6]	Bliss excess [7]	Bliss excess (NY (Osteosarcoma))	Bliss excess [8]	Bliss excess [9]	Bliss excess (8-MG-BA (Glioblastoma))	Bliss excess (IGR-37 (Melanoma))	Bliss excess [10]	Bliss excess [11]	Bliss excess [12]	Bliss excess (PA-1 (Ovarian Carcinoma))	combination Emax (FU97 (Gastric Carcinoma))	combination Emax [13]	combination Emax [14]
CCN(CCO)CCCOc1ccc2c(Nc3cc(CC(=O)Nc4cccc(F)c4)[nH]n3)ncnc2c1 [AZD2811] + O=C(c1cc(Cc2n[nH]c(=O)c3ccccc23)ccc1F)N1CCN(C(=O)C2CC2)CC1 [Olaparib] (first compound max 1 µM, 7x7, partner max 10 µM)	0.0014	-0.0224	-0.0468	0.0589	-0.0023	-0.107	-0.0261	0.007	-0.0339	-0.0557	0.0271	0.0327	-0.0353	-0.0061	0.0022	-0.0179	0.0873	0.332	0.284	0.152
CC1(C)CCC(CN2CCN(c3ccc(C(=O)NS(=O)(=O)c4ccc(NCC5CCOCC5)c([N+](=O)[O-])c4)c(Oc4cnc5[nH]ccc5c4)c3)CC2)=C(c2ccc(Cl)cc2)C1 [Venetoclax] + C[C@@H]1COCCN1C2=NC(=NC(=C2)C3(CC3)[S@](=N)(=O)C)C4=C5C=CNC5=NC=C4 [AZD6738] (first compound max 1 µM, 7x7, partner max 10 µM)	-0.0174	-0.016	-0.113	-0.0054	0.0328	-0.0132	-0.0804	-0.0147	-0.0597	0.0202	-0.0025	-0.0603	0.0453	-0.0465	-0.0293	-0.0076	-0.006	0.339	0.424	0.55
CN(C)CCCOc1ccc(-c2ccc3ncc4c(c3c2)n(C2CCOCC2)c(=O)n4C)cn1 [AZD0156] + O=C(c1cc(Cc2n[nH]c(=O)c3ccccc23)ccc1F)N1CCN(C(=O)C2CC2)CC1 [Olaparib] (first compound max 3 µM, partner max 3 µM)	0.0063	-0.0375	0.0378	-0.0106	0.0066	0.0522	-0.0432	-0.0439	-0.0279	0.0117	0.0269	0.079	-0.0103	0.0069	0.0251	0.104	0.122	0.422	0.269	0.218
COc1cccc2c1C(=O)c1c(O)c3c(c(O)c1C2=O)C[C@@](O)(C(=O)CO)C[C@@H]3O[C@H]1C[C@H](N)[C@H](O)[C@H](C)O1 [Doxorubicin] + Cc1cc2ncnn2cc1Nc1ncc2c(n1)n(C1CCOCC1)c(=O)n2C [AZD7648] (first compound max 1 µM, 7x7, partner max 10 µM)	0.0275	-0.0125	-0.0557	0.0063	0.0849	0.0602	-0.0114	0.036	0.0578	0.0099	0.0756	0.0675	0.0631	0.0564	0.0486	0.0307	0.0617	0.59	0.825	0.729
C[C@@H]1COCCN1c1cc(C2([S@](C)(=N)=O)CC2)nc(-c2ccnc3[nH]ccc23)n1 [AZD6738] + O=C(c1cc(Cc2n[nH]c(=O)c3ccccc23)ccc1F)N1CCN(C(=O)C2CC2)CC1 [Olaparib] (first compound max 10 µM, 7x7, partner max 10 µM)	-0.0107	0.0005	-0.0133	-0.0686	0.0028	0.0666	-0.0085	-0.0082	-0.0521	0.0682	0.0052	0.0521	-0.0475	0.0273	0.0176	-0.0357	0.0046	0.332	0.331	0.353
CN(CCO)CC[C@H](CSc1ccccc1)Nc1ccc(S(=O)(=O)NC(=O)c2ccc(N3CCC([C@@H](O)c4ccccc4-c4ccc(Cl)cc4)CC3)cc2)cc1S(=O)(=O)C(F)(F)F [AZD4320] + Cn1cnc2c(F)c(Nc3ccc(Br)cc3Cl)c(C(=O)NOCCO)cc21 [Selumetinib] (first compound max 1 µM, 7x7, partner max 3 µM)	0.0322	-0.061	0.0065	0.0427	0.0665	0.027	0.0178	0.0031	0.0072	-0.008	0.0763	0.0614	-0.0039	0.0226	-0.0046	0.0102	0.144	0.544	0.697	0.617
CN(CCO)CC[C@H](CSc1ccccc1)Nc1ccc(S(=O)(=O)NC(=O)c2ccc(N3CCC([C@@H](O)c4ccccc4-c4ccc(Cl)cc4)CC3)cc2)cc1S(=O)(=O)C(F)(F)F [AZD4320] + C1CN(CCC1(C(=O)N[C@@H](CCO)C2=CC=C(C=C2)Cl)N)C3=NC=NC4=C3C=CN4 [Capivasertib] (first compound max 1 µM, 7x7, partner max 3 µM)	0.0013	-0.0454	-0.0338	-0.028	0.0377	-0.0312	-0.0547	-0.0456	-0.0277	-0.027	-0.0482	-0.0071	-0.0389	-0.0589	-0.0582	-0.0136	0.0592	0.418	0.201	0.902
COc1nnc2ccc(N3CCC(c4ccc(OCCN5CCN(C)C(=O)[C@H]5C)cc4)CC3)nn12 [AZD5153] + CC1(C)CCC(CN2CCN(c3ccc(C(=O)NS(=O)(=O)c4ccc(NCC5CCOCC5)c([N+](=O)[O-])c4)c(Oc4cnc5[nH]ccc5c4)c3)CC2)=C(c2ccc(Cl)cc2)C1 [Venetoclax] (first compound max 1 µM, 7x7, partner max 1 µM)	-0.0486	-0.0861	-0.119	-0.0455	-0.0391	0.0248	-0.0584	-0.0464	-0.0722	0.0085	-0.0566	-0.0116	-0.0171	-0.0659	-0.106	-0.0657	-0.077	0.754	0.439	0.152
CCc1c2c(nc3ccc(O)cc13)-c1cc3c(c(=O)n1C2)COC(=O)[C@]3(O)CC [SN-38] + CN(C)CCCOc1ccc(-c2ccc3ncc4c(c3c2)n(C2CCOCC2)c(=O)n4C)cn1 [AZD0156] (first compound max 0.3 µM, 7x7, partner max 1 µM)	-0.018	-0.0028	-0.0858	-0.0365	0.035	-0.143	-0.0022	-0.0099	-0.0288	0.0219	0.0171	0.0392	-0.0327	0.0128	0.0068	0.0243	0.0713	0.187	0.626	0.376
Cn1cnc2c(F)c(Nc3ccc(Br)cc3Cl)c(C(=O)NOCCO)cc21 [Selumetinib] + C[C@@H]1COCCN1C2=NC(=NC(=C2)C3(CC3)[S@](=N)(=O)C)C4=C5C=CNC5=NC=C4 [AZD6738] (first compound max 10 µM, 7x7, partner max 10 µM)	-0.0602	-0.0448	-0.07	-0.0464	-0.0327	0.0198	-0.0455	-0.0017	0.0613	-0.0666	0.042	-0.0051	-0.0122	-0.0173	0.0773	-0.0678	0.0267	0.333	0.516	0.432
Cn1cnc2c(F)c(Nc3ccc(Br)cc3Cl)c(C(=O)NOCCO)cc21 [Selumetinib] + C=CCn1c(=O)c2cnc(Nc3ccc(N4CCN(C)CC4)cc3)nc2n1-c1cccc(C(C)(C)O)n1 [AZD1775] (first compound max 10 µM, partner max 1 µM)	-0.063	-0.0962	-0.0898	-0.005	-0.0005	-0.0058	-0.023	-0.0092	-0.071	-0.0682	-0.0165	-0.0543	0.0122	-0.0741	-0.0169	-0.0657	-0.001	0.364	0.538	0.397
Cc1c2c(nn1C)CSCc1cc(n(C)n1)CSc1cc(c3ccccc3c1)OCCCc1c(C(=O)O)n(C)c3c-2c(Cl)ccc13 [AZD5991] + CN(C)CCCOc1ccc(-c2ccc3ncc4c(c3c2)n(C2CCOCC2)c(=O)n4C)cn1 [AZD0156] (first compound max 1 µM, 7x7, partner max 1 µM)	0.0034	-0.0026	-0.0048	-0.0708	0.0247	-0.0158	-0.0096	-0.0254	0.0299	-0.0146	0.0114	0.0044	0.0148	-0.026	0.0199	0.0531	0.004	0.318	0.238	0.978
